Key:
Rat [1] = assay: concentration in plasma after dosing; conditions: dosed: Wyeth-14643, 2.0 mg/kg, oral, Male, Sprague-Dawley
Rat [2] = assay: concentration in plasma after dosing; conditions: dosed: Bis 2-Chloroethoxy Methane, 40 mg/kg, iv, Male, Harlan Sprague Dawley
Rat [3] = assay: concentration in thymus after dosing; conditions: 10 min; dosed: Bis 2-Chloroethoxy Methane; 20 mg/kg; iv; Female; F344
Rat [4] = assay: concentration in thymus after dosing; conditions: 4 h; dosed: Bis 2-Chloroethoxy Methane; 20 mg/kg; iv; Female; F344
Rat [5] = assay: concentration in liver after dosing; conditions: 5 h; dosed: Bis 2-Chloroethoxy Methane; 20 mg/kg; iv; Male; F344
Rat [6] = assay: concentration in thymus after dosing; conditions: 5 h; dosed: Bis 2-Chloroethoxy Methane; 20 mg/kg; iv; Female; F344
Rat [7] = assay: concentration in thymus after dosing; conditions: 7 h; dosed: Bis 2-Chloroethoxy Methane; 20 mg/kg; iv; Female; F344
Rat [8] = assay: concentration in thymus after dosing; conditions: 7 h; dosed: Bis 2-Chloroethoxy Methane; 20 mg/kg; iv; Male; F344
Rat [9] = assay: concentration in liver after dosing; conditions: 20 min; dosed: Bis 2-Chloroethoxy Methane; 20 mg/kg; iv; Female; F344
Rat [10] = assay: concentration in heart after dosing; conditions: 40 min; dosed: Bis 2-Chloroethoxy Methane; 20 mg/kg; iv; Male; F344
Rat [11] = assay: concentration in heart after dosing; conditions: 2 h; dosed: Bis 2-Chloroethoxy Methane; 20 mg/kg; iv; Female; F344
Rat [12] = assay: concentration in plasma after dosing; conditions: 6 h; dosed: Bis 2-Chloroethoxy Methane; 20 mg/kg; iv; Female; F344
Rat [13] = assay: concentration in plasma after dosing; conditions: 5 min; dosed: Fluorotelomer alcohol 8+2; 12 mg/kg; iv; Male; F344
Rat [14] = assay: concentration in plasma after dosing; conditions: dosed: Fluorotelomer alcohol 8+2, 12 mg/kg, iv, Male, F344
Rat [15] = assay: concentration in plasma after dosing; conditions: dosed: Fluorotelomer alcohol 8+2, 12 mg/kg, oral, Male, Harlan Sprague Dawley
Rat [16] = assay: concentration in liver after dosing; conditions: 0.5 h; dosed: Fluorotelomer alcohol 8+2; 80 mg/kg; oral; Female; Harlan Sprague Dawley
Rat [17] = assay: concentration in plasma after dosing; conditions: 1 h; dosed: Di-n-butyl phthalate; 20 mg/kg; iv; Male; Sprague-Dawley
Rat [18] = assay: concentration in plasma after dosing; conditions: 20 min; dosed: Di-n-butyl phthalate; 20 mg/kg; iv; Male; Sprague-Dawley
Rat [19] = assay: concentration in plasma after dosing; conditions: 5 min; dosed: Di-n-butyl phthalate; 20 mg/kg; iv; Male; Sprague-Dawley
Rat [20] = assay: concentration in kidney after dosing; conditions: 1 h; dosed: Perfluorodecanoic acid; 10 mg/kg; oral; Female; Harlan Sprague Dawley
Rat [21] = assay: concentration in liver after dosing; conditions: 1848 h; dosed: Perfluorodecanoic acid; 10 mg/kg; oral; Male; Harlan Sprague Dawley
Rat [22] = assay: concentration in brain after dosing; conditions: 1848 h; dosed: Perfluorodecanoic acid; 10 mg/kg; oral; Male; Harlan Sprague Dawley
Rat [23] = assay: concentration in plasma after dosing; conditions: dosed: Perfluorodecanoic acid, 2 mg/kg, iv, Male, F344
Rat [24] = assay: concentration in plasma after dosing; conditions: dosed: Perfluorodecanoic acid, 2 mg/kg, iv, Male, F344; remark: listed apart in the source
Rat [25] = assay: concentration in plasma after dosing; conditions: 9 h; dosed: Primidone; 80 mg/kg; oral; Female; F344
Rat [26] = assay: concentration in plasma after dosing; conditions: 18 h; dosed: Primidone; 30 mg/kg; oral; Female; F344
Rat [27] = assay: concentration in plasma after dosing; conditions: 10 min; dosed: Thiodiglycolic Acid; 20 mg/kg; iv; Male; F344
Rat [28] = assay: concentration in thymus after dosing; conditions: 10 min; dosed: Thiodiglycolic Acid; 20 mg/kg; iv; Male; F344
Rat [29] = assay: concentration in liver after dosing; conditions: 5.333 h; dosed: Thiodiglycolic Acid; 20 mg/kg; iv; Male; Harlan Sprague Dawley
Rat [30] = assay: concentration in plasma after dosing; conditions: 5.333 h; dosed: Thiodiglycolic Acid; 20 mg/kg; iv; Male; Harlan Sprague Dawley
Rat [31] = assay: concentration in heart after dosing; conditions: 1 h; dosed: Thiodiglycolic Acid; 20 mg/kg; iv; Male; Harlan Sprague Dawley
Rat [32] = assay: concentration in heart after dosing; conditions: 2 h; dosed: Thiodiglycolic Acid; 20 mg/kg; iv; Female; Harlan Sprague Dawley
Rat [33] = assay: concentration in liver after dosing; conditions: 8 h; dosed: Thiodiglycolic Acid; 20 mg/kg; iv; Female; Harlan Sprague Dawley
Rat [34] = assay: concentration in thymus after dosing; conditions: 6.667 h; dosed: Thiodiglycolic Acid; 20 mg/kg; iv; Female; Harlan Sprague Dawley
Rat [35] = assay: concentration in thymus after dosing; conditions: 10 h; dosed: Thiodiglycolic Acid; 20 mg/kg; iv; Male; F344
Rat [36] = assay: concentration in plasma after dosing; conditions: 1 h; dosed: Thiodiglycolic Acid; 20 mg/kg; iv; Male; Harlan Sprague Dawley
Rat [37] = assay: concentration in plasma after dosing; conditions: 20 min; dosed: dichloroacetic acid; 10 mg/kg; iv; Male; F344
Rat [38] = assay: concentration in plasma after dosing; conditions: 2 h; dosed: dichloroacetic acid; 60 mg/kg; iv; Female; Harlan Sprague-Dawley
Rat [39] = assay: concentration in plasma after dosing; conditions: 20 min; dosed: dichloroacetic acid; 10 mg/kg; oral; Male; Harlan Sprague Dawley

Compound `Cc1cccc(Nc2cc(Cl)nc(SCC(=O)O)n2)c1C` has a concentration in plasma (Rat [1]; 1 h) of 904 ng/mL and a concentration in plasma (Rat [1]; 6 h) of 200 ng/mL.

`ClCCOCOCCCl` [Bis 2-Chloroethoxy Methane] was tested, and the concentration in plasma (Rat [2]; 1 h) was 4820 ng/mL, the concentration in plasma (Rat [2]; 9.667 h) was 15.4 ng/mL and the concentration in thymus (Rat [3]) was 44200 ng/g. It also gave a concentration in thymus (Rat [4]) of 108 ng/g, a concentration in liver (Rat [5]) of 42.7 ng/g and a concentration in thymus (Rat [6]) of 79.1 ng/g. It also gave a concentration in thymus (Rat [7]) of 17.7 ng/g, a concentration in thymus (Rat [8]) of 17 ng/g and a concentration in liver (Rat [9]) of 1330 ng/g. It also gave a concentration in heart (Rat [10]) of 7270 ng/g, a concentration in heart (Rat [11]) of 401 ng/g and a concentration in plasma (Rat [12]) of 16.9 ng/mL.

Compound `OCCC(F)(F)C(F)(F)C(F)(F)C(F)(F)C(F)(F)C(F)(F)C(F)(F)C(F)(F)F` [Fluorotelomer alcohol 8+2] has a concentration in plasma (Rat [13]) of 24300 ng/mL, a concentration in plasma (Rat [14]; 1 h) of 662 ng/mL and a concentration in plasma (Rat [14]; 6 h) of 38.1 ng/mL. It also gave a concentration in plasma (Rat [15]; 0.25 h) of 253 ng/mL, a concentration in plasma (Rat [15]; 6 h) of 40.7 ng/mL and a concentration in liver (Rat [16]) of 15900 ng/g.

Compound `CCCCOC(=O)c1ccccc1C(=O)O` [Mono-n-butyl phthalate] has a concentration in plasma (Rat [17]) of 3480 ng/mL, a concentration in plasma (Rat [18]) of 21800 ng/mL and a concentration in plasma (Rat [19]) of 38500 ng/mL.

`O=C(O)C(F)(F)C(F)(F)C(F)(F)C(F)(F)C(F)(F)C(F)(F)C(F)(F)C(F)(F)C(F)(F)F` [Perfluorodecanoic acid] gave a concentration in kidney (Rat [20]) of 22800 ng/g, a concentration in liver (Rat [21]) of 27600 ng/g and a concentration in brain (Rat [22]) of 644 ng/g. It also gave a concentration in plasma (Rat [23]; 6 h) of 6360 ng/mL, a concentration in plasma (Rat [23]; 864 h) of 1550 ng/mL and a concentration in plasma (Rat [24]; 6 h) of 5600 ng/mL. For the same compound, the concentration in plasma (Rat [24]; 864 h) was 2690 ng/mL.

With `CCC1(c2ccccc2)C(=O)NC(=O)NC1=O` [Phenobarbital] the concentration in plasma (Rat [25]) was 2370 ng/mL and the concentration in plasma (Rat [26]) was 1060 ng/mL.

`O=C(O)CSCC(=O)O` [Thiodiglycolic Acid] showed a concentration in plasma (Rat [27]) of 34600 ng/mL, a concentration in thymus (Rat [28]) of 6960 ng/g and a concentration in liver (Rat [29]) of 22900 ng/g. It also gave a concentration in plasma (Rat [30]) of 198 ng/mL, a concentration in heart (Rat [31]) of 1520 ng/g and a concentration in heart (Rat [32]) of 1640 ng/g. It also gave a concentration in liver (Rat [33]) of 940 ng/g, a concentration in thymus (Rat [34]) of 263 ng/g and a concentration in thymus (Rat [35]) of 477 ng/g. It also gave a concentration in plasma (Rat [36]) of 2150 ng/mL.

In the case of `O=C(O)C(Cl)Cl` [dichloroacetic acid], the concentration in plasma (Rat [37]) is reported as 2320 ng/mL, the concentration in plasma (Rat [38]) is reported as 1170 ng/mL and the concentration in plasma (Rat [39]) is reported as 680 ng/mL.

From EPA's CvTdb concentration-time database
